In US12479818B2, “Treatment of fibrosis with IRE1 small molecule inhibitors” (Cornell University, priority 2019, dated 2025) one finds EC50 data, which are given here for twelve molecules.

Where only a bound is given, the exact number is not on record here.

This assay has as its target IRE1a (Homo sapiens, UniProt O75460). As to the kind of experiment: IRE1a Endoribonuclease Nanoluciferase Assay (XBP1 luciferase reporter in 293T cells). Type of assay: cell-based. Set-up: endogenous in cells; host or cells: 293T. Particulars: XBP1 nanoluciferase reporter in 293T cells, ER stressor; tested as the salt named. The method, then:
Compounds disclosed herein were assessed for disruption of IRE1 signaling using a IRE1a Endoribonuclease Nanoluciferase Assay. […] About 24 hours later, the cells were transfected with Effectene. In a 15 mL tube, the following was added: 2 ug XBP1 luciferase reporter plasmid (PGK-Luc2-P2A-XBP1u-Nanoluciferase-PEST); 300 ul EC buffer; and 16 ul Enhancer, followed by incubation at room temp for 5 minutes. […] 2.6 mL cDMEM media was added. Old media was aspirated from the cells, followed by addition of 7 mL fresh media. Full transfection mixture was added dropwise to cells. Cells were incubated for 6 hours, followed by trypsinization, centrifugation and resuspension in 11 mL fresh cDMEM media. 100 μL of cells were plated per a well in a 96 well plate. A day later, ER stressors of choice +/− inhibitors were added. To harvest, media was aspirated from cells completely, then 50 uL 1× passive lysis buffer (Promega: E1941) was added per well and put on shaker (300 rpm) for 30 minutes at room temperature. […] 15 uL OneGlo (nanoluciferase kit, Promega N1630) was added. Plates were spun down, placed on shaker (300 rpm) for 10 minutes. Plates were read on luminometer, 1000 ms integration time per well. 15 uL Stop and Glo (nanoluciferase kit) was added. Plates were spun down, placed on shaker (300 rpm) for 10 minutes. Plates were read on luminometer, 1000 ms second integration time per well.

Chain of IRE1a (O75460 19-977): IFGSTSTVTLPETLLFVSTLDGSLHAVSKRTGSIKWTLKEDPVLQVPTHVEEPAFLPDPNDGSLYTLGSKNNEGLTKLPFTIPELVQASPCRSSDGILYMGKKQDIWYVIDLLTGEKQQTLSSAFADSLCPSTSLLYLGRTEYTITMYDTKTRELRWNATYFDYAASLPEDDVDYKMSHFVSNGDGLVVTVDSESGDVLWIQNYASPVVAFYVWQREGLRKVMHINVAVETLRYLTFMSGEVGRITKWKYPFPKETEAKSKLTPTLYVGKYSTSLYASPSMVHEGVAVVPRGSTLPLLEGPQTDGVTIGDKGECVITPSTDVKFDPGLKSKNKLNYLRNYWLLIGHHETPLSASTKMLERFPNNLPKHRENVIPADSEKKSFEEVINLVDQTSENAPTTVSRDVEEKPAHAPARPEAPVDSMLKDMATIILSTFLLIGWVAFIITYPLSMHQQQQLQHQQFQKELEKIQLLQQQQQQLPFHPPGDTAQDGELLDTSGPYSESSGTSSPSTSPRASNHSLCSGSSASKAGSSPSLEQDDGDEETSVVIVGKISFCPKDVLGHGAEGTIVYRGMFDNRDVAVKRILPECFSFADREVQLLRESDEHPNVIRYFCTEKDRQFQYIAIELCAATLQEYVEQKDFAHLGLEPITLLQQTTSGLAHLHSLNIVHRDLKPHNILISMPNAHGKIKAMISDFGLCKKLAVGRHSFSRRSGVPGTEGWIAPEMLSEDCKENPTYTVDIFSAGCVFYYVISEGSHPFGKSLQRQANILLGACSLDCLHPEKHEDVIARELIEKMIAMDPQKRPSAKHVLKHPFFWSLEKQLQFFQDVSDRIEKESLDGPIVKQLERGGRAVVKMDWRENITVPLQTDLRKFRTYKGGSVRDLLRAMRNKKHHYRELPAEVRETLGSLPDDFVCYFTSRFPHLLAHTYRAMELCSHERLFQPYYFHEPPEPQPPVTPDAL

In the case of `CCc1cc(-c2cnc(NS(=O)(=O)c3ccccc3Cl)nc2C)cc2cnc(N[C@H]3CC[C@H](N)CC3)nc12` [Compound 23, N-(5-(2-(((1r,4r)-, 4-aminocyelohexyl)amino)-8-ethylquinazolin-6-yl)-4-methylpyrimidin-2-yl)-2-ehlorobenzene-sulfonamide], the EC50 is less than 5 nM.

`CCc1cc(-c2ccc(NS(=O)(=O)c3ccccc3Cl)c(F)c2)cc2cnc(N[C@H]3CC[C@H](N)CC3)nc12` [Compound 24, N-(4-(2-(((1r,4r)-4-aminocyclohexyl)amino)-8-ethylquinazolin-6-yl)-2-fluorophenyl)-2-chlorobenzene-sulfonamide]: the concentration giving a half-maximal response (EC50) was less than 5 nM.

In the case of `N[C@H]1CC[C@H](Nc2ncc3cc(-c4ccc(NS(=O)(=O)c5ccccc5Cl)cc4)ccc3n2)CC1` [Compound 26, N-(4-(2-(((lr,4r) 4-aminocyclohexyl)amino)quinazolin-6-yl)phenyl)-2-chlorobenzene-sulfonamide], the EC50 is less than 5 nM.

`CCc1cc(-c2ccc(NS(=O)(=O)c3ccccc3Cl)nc2)cc2cnc(N[C@H]3CC[C@H](N)CC3)nc12` [Compound 27, N-(5-(2-(((lr,4r)-4-aminocyclohexyl)amino)-8-ethylquinazolin-6-yl)pyridin-2-yl)-2-chlorobenzene-sulfonamide]: the EC50 was less than 5 nM.

Consider `CCc1cc(-c2ccc(NS(=O)(=O)c3ccccc3Cl)cn2)cc2cnc(N[C@H]3CC[C@H](N)CC3)nc12` [Compound 28, N-(6-(2-(((1r,4r)-4-aminocyclohexyl)amino)-8-ethylquinazolin-6-yl)pyridin-3-yl)-2-chlorobenzene-sulfonamide], for which the EC50 was less than 5 nM.

On to `CCc1cc(-c2cc(NS(=O)(=O)c3ccccc3Cl)n[nH]2)cc2cnc(N[C@H]3CC[C@H](N)CC3)nc12` [Compound 29, N-(5-(2-(((lr,4r)-4-aminocyclohexyl)amino)-8-ethylquinazolin-6-yl)-1H-pyrazol-3-yl)-2-chlorobenzene-sulfonamide], for which the EC50 was 100 to 10000 nM.

Take `CCc1cc(-c2ccc(NS(=O)(=O)c3ccccc3Cl)nn2)cc2cnc(N[C@H]3CC[C@H](N)CC3)nc12` [Compound 32]: the EC50 was less than 5 nM.

For `CCc1cc(-c2ncc(NS(=O)(=O)c3ccccc3Cl)cn2)cc2cnc(N[C@H]3CC[C@H](N)CC3)nc12` [Compound 33, N-(2-(2-(((1r,4r)-4-aminocyclohexyl)amino)-8-ethylquinazolin-6-yl)pyrimidin-5-yl)-2-chlorobenzene-sulfonamide], the EC50 was less than 5 nM.

On to `CCc1cc(NS(=O)(=O)c2ccccc2Cl)ccc1-c1cc(CC)c2nc(N[C@H]3CC[C@H](N)CC3)ncc2c1` [Compound 34, N-(4-(2-(((1r,4r)-4-aminocyclohexyl)amino)-8-ethylquinazolin-6-yl)-3-ethylphenyl)-2-chlorobenzene-sulfonamide], for which the EC50 lay within 5 to 50 nM.

As for `CCc1cc(-c2ccc(NS(=O)(=O)c3ccccc3Cl)cc2F)cc2cnc(N[C@H]3CC[C@H](N)CC3)nc12` [Compound 35, N-(4-(2-(((lr,4r)-4-aminocyclohexyl)amino)-8-ethylquinazolin-6-yl)-3-f1uorophenyl)-2-chlorobenzene-sulfonamide], the EC50 was less than 5 nM.

As to `CCc1cc(-c2cc(NS(=O)(=O)c3ccccc3Cl)no2)cc2cnc(N[C@H]3CC[C@H](N)CC3)nc12` [Compound 44, N-(5-(2-(((1r,4r)-4-aminocyclohexyl)amino)-8-ethylquinazolin 6-yl)isoxazol-3-yl)-2-chlorobenzene-sulfonamide], the concentration giving a half-maximal response (EC50) is less than 5 nM.

On to `CCc1cc(-c2cnc(NS(=O)(=O)c3ccccc3Cl)nc2OC)cc2cnc(N[C@H]3CC[C@H](N)CC3)nc12` [Compound 46, N-(5-(2-(((1r,4r)-4-aminocyclohexyl)amino)-8-ethylquinazolin-6-yl)-4-methoxypyrimidin-2-yl)-2-chlorobenzene-sulfonamide], for which the concentration for a half-maximal effect (EC50) is less than 5 nM.
